Test results as given in US20210087188A1, “5,6-DIHYDRO-1 1H-INDOLO{2,3-B}QUINOLIN- 11-ONE COMPOUNDS AS ALK INHIBITORS” (THE REGENTS OF THE UNIVERSITY OF MICHIGAN, priority 2018, published 2021).
Counter-ions that a name gives are not always drawn.

molecular target: T1, wild-type human ALK protein (cytoplasmic domain, amino acid 1058-1620, N-terminal GST-fusion) (Homo sapiens, UniProt Q9UM73); test: Enzymatic inhibition assay (time-resolved fluorescence, peptide substrate phosphorylation); assay type: biochemical; conditions: ATP 100 μM, 30 min pre-incubation, 90 min reaction, read-out: WT IC50
T1 construct: The cytoplasmic domain (amino acid 1058-1620) of wild-type human ALK protein; GST (N); purchased Carna Biosciences, Inc (Japan)
T1 sequence (Q9UM73 1058-1620): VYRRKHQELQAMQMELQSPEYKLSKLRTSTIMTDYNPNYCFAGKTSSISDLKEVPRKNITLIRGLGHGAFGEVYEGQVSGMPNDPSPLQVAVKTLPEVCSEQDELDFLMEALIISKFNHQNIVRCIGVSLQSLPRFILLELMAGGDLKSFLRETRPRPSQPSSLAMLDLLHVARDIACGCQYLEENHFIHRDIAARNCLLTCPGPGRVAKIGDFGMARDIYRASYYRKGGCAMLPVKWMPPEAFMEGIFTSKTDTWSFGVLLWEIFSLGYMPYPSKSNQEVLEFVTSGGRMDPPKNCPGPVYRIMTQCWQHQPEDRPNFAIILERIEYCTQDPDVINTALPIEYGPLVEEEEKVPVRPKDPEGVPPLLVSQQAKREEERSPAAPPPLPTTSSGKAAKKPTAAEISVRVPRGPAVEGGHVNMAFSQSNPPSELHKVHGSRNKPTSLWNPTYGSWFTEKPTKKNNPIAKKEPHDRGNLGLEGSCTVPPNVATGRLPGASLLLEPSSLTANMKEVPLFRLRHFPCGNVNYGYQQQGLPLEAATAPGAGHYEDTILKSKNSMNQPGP
Procedure: Enzymatic Inhibition Assay
The cytoplasmic domain (amino acid 1058-1620) of wild-type human ALK protein expressed as N-terminal GST-fusion protein was purchased from Carna Biosciences, Inc (Japan). Compound solution (2.5 μL) and 5 μL of protein solution were added into a black low volume 384 well microtiter plate which was incubated for 30 minutes with gentle shaking at room temperature, followed by adding 2.5 μL of fluorescently labeled peptide substrate and ATP mixture solution. The kinase reaction was performed in 50 mM HEPES (pH 7.5) with 1 mM EGTA, 1 mM MgCl2, and 2 mM DTT, 0.01% Tween-20 added immediately prior to the assay. Final concentrations of ATP, substrates, and DMSO were 100 μM, 20 nM, and 0.5%, respectively. The final ALK concentrations were […]. The reaction was allowed to proceed for 90 minutes in the dark with gentle shaking at rt after which 10 μL of 20 mM EDTA and 2 nM Eu-W1024 anti-phosphotyrosine antibody (PT66) mixture solution in the detection buffer from the manufacturer was added to terminate the reaction and detect the phosphorylation of the peptide substrate. The final mixture was incubated in the dark for 1 h before the plate was read on a Tecan Infinite M-1000 multi-mode plate reader (Tecan, Durham N.C.) with an excitation wavelength of 320 nm. Emission intensities were measured at both 620 and 665 nm with the intensity ratio between 665 and 620 nm corresponding to the peptide substrate phosphorylation. IC50 values of inhibitors were obtained by fitting the ratio of 665/620 nm vs inhibitor concentrations in a sigmoidal dose-response curve (variable slope) with a non-linear regression.

| Compound | IC50 |
| --- | --- |
| CC(C)Oc1c(N2CCC(N3CCOCC3)CC2)cc2c(c1F)c(=O)c1c3ccc(C#N)cc3[nH]c1n2C(C)C [Cpd. No. 1, 1-fluoro-2-isopropoxy-5-isopropyl-3-(4-morpholinopiperidin-1-yl)-11-oxo-6,11-dihydro-5H-indolo[2,3-b]quinoline-8-carbonitrile] | 2.4 nM |
| CC(C)Oc1c(N2CCN(C3CCOCC3)CC2)cc2c(c1F)c(=O)c1c3ccc(C#N)cc3[nH]c1n2C(C)C [compound 2, 1-fluoro-2-isopropoxy-5-isopropyl-11-oxo-3-(4-(tetrahydro-2H-pyran-4-yl)piperazin-1-yl)-6,11-dihydro-5H-indolo[2,3-b]quinoline-8-carbonitrile] | 1.5 nM |
| CC(C)Oc1c(N2CCN(C(C)C)CC2)cc2c(c1F)c(=O)c1c3ccc(C#N)cc3[nH]c1n2C(C)C [compound 4, 1-fluoro-2-isopropoxy-5-isopropyl-3-(4-isopropylpiperazin-1-yl)-11-oxo-6,11-dihydro-5H-indolo[2,3-b]quinoline-8-carbonitrile] | 0.83 nM |
| COc1c(N2CCN(C3COC3)CC2)cc2c(c1F)c(=O)c1c3ccc(C#N)cc3[nH]c1n2C(C)C [compound 6, 1-fluoro-5-isopropyl-2-methoxy-3-(4-(oxetan-3-yl)piperazin-1-yl)-11-oxo-6,11-dihydro-5H-indolo[2,3-b]quinoline-8-carbonitrile] | 5.4 nM |
| COc1c(N2CCN(C3CCOCC3)CC2)cc2c(c1F)c(=O)c1c3ccc(C#N)cc3[nH]c1n2C(C)C [compound 7, 1-fluoro-5-isopropyl-2-methoxy-11-oxo-3-(4-(tetrahydro-2H-pyran-4-yl)piperazin-1-yl)-6,11-dihydro-5H-indolo[2,3-b]quinoline-8-carbontrile] | 1.4 nM |
| COCCOc1cc2c(=O)c3c4ccc(C#N)cc4[nH]c3n(C(C)C)c2c(F)c1N1CCN(C2CCOCC2)CC1 [compound 9, 4-fluoro-5-isopropyl-2-(2-methoxyethoxy)-11-oxo-3-(4-(tetrahydro-2H-pyran-4-yl)piperazin-1-yl)-6,11-dihydro-5H-indolo[2,3-b]quinoline-8-carbonitrile (TFA salt)] | 54.4 nM |
| COCCOc1cc2c(=O)c3c4ccc(C#N)cc4[nH]c3n(C(C)C)c2c(F)c1N1C[C@@H](C)N(C)[C@@H](C)C1 [compound 10, 4-f1uoro-5-isopropyl-2-(2-methoxyethoxy)-11-oxo-3-(cis-3,4,5-trimethylpiperazin-1-yl)-6,11-dihydro-5H-indolo[2,3-b]quinoline-8-carbonitrile (TFA salt)] | 16.9 nM |

Second part, the molecule after the results:

| IC50 | Compound |
| --- | --- |
| 0.57 nM | CC(C)Oc1c(N2C[C@@H](C)N(C)[C@@H](C)C2)cc2c(c1F)c(=O)c1c3ccc(C#N)cc3[nH]c1n2C(C)C [compound 3, 1-fluoro-2-isopropoxy-5-isopropyl-11-oxo-3-(cis-3,4,5-trimethylpiperazin-1-yl)-6,11-dihydro-5H-indolo[2,3-b]quinoline-8-carbonitrile] |
| 4.3 nM | CC(C)Oc1c(N2CCN(C3COC3)CC2)cc2c(c1F)c(=O)c1c3ccc(C#N)cc3[nH]c1n2C(C)C [compound 5, 1-fluoro-2-isopropoxy-5-isopropyl-3-(4-(oxetan-3-yl)piperazin-1-yl)-11-oxo-6,11-dihydro-5H-indolo[2,3-b]quinoline-8-carbonitrile] |
| 0.52 nM | COc1c(N2C[C@@H](C)N(C)[C@@H](C)C2)cc2c(c1F)c(=O)c1c3ccc(C#N)cc3[nH]c1n2C(C)C [compound 8, 1-fluoro-5-isopropyl-2-methoxy-11-oxo-3-(cis-3,4,5-trimethylpiperazin-1-yl)-6,11-dihydro-5H-indolo[2,3-b]quinoline-8-carbonitrile] |
| 7.8 nM | CC(C)Oc1cc2c(=O)c3c4ccc(C#N)cc4[nH]c3n(C(C)C)c2c(F)c1N1C[C@@H](C)N(C)[C@@H](C)C1 [compound 11, 4-fluoro-2-isopropoxy-5-isopropyl-11-oxo-(cis-3,4,5-trimethylpiperazin-1-yl)-6,11-dihydro-5H-indolo[2,3-b]quinoline-8-carbonitrile (TFA salt)] |
